Data taken from publication PMC8490515, “Neuromedin B receptor stimulation of Cav3.2 T-type Ca^2+ channels in primary sensory neurons mediates peripheral pain hypersensitivity” (Theranostics, 2021).

Experiments:
[1] = system: voltage-gated Na^+ channels (Nav); assay: Whole-cell voltage-gated Na+ channel currents in TG neurons; assay type: cell-based, mouse; conditions: 100 nM
Description: (§1) All the procedures performed in this study were carried out in accordance with NIH guidelines and were approved by the Institutional Animal Care and Use Committee of Soochow University. TG neurons were dissociated as previously described, [23]. Briefly, TGs were harvested from 8- to 10-week-old ICR mice of either sex, cut into small pieces and treated with 2 mg/mL collagenase D (Roche) for 20 min followed by 1.5 mg/mL trypsin (Sigma) at 37 °C for 15 min. Cells were dissociated via gentle trituration with fire-polished sterilized Pasteur pipettes and centrifuged through a 15% BSA gradient to remove debris and nonneuronal cells. TG neurons were resuspended in neurobasal A (Thermo Fisher) supplemented with B27 (Thermo Fisher) and transferred onto Matrigel-coated coverslips. Patch clamp recordings were conducted 2 to 6 h after plating. In shRNA-treated knockdown experiments, TG cells were replated onto coverslips 48 h after infection.
(§2) Standard whole-cell recordings were made at room temperature (22-23 °C) as described previously, [25]. Recording electrodes were pulled from borosilicate glass microcapillary tubes (Sutter Instruments) and had resistances from 3 to 5 MΩ when filled with internal solution. Recordings were obtained using a MultiClamp 700B amplifier (Axon Instruments). […]

[2] = system: transient outward K^+ channel (IA); assay: Transient outward A-type K+ currents (IA) in TG neurons; assay type: cell-based, mouse; conditions: 100 nM
Description: as §1, §2

[3] = system: sustained delayed rectifier K^+ channel (IDR); assay: Sustained delayed rectifier K+ currents (IDR) in TG neurons; assay type: cell-based, mouse; conditions: 100 nM
Description: as §1, §2

nociceptive reflex = conditions: intrathecal injection; ref [4], [5]; cited from earlier work
Description: Neuromedin B (Nmb) is a highly conserved and non-glycosylated polypeptide in mammals initially purified from porcine spinal cord that serves as a neuromodulator by paracrine or autocrine mechanisms. Nmb receptor (NmbR), which is located predominantly (but not exclusively) in peripheral tissues and organs and the central nervous system in mammals, has been identified as an endogenous receptor for Nmb. Acting through this receptor, Nmb mediates several behavioural effects and performs various biological functions, including regulating food intake, smooth muscle contraction, body temperat ...

**Q.** For Neuromedin B [Nmb], which “effect on whole-cell Nav currents” value [1] is on record?
**A.** The value was “did not affect”.

**Q.** And the “decrease of peak amplitude of IA” value [2]?
**A.** Its value is 22.3 ± 3.9%.

**Q.** What about the “decrease of IDR” value [3] of the same substance?
**A.** The value was 1.9 ± 1.6%.

**Q.** What about the nociceptive reflex responses (nociceptive reflex) of the same substance?
**A.** The nociceptive reflex responses was “elicits nociceptive reflex responses”.
